According to PMC7245553 (Cell chemical biology, 2020):

What was measured:
[1] = tested on: DG167-resistant M. tuberculosis; type: cell-based, Mycobacterium tuberculosis
[2] = tested on: clinical drug-sensitive and drug-resistant strains of M. tuberculosis; assay: Whole-cell activity versus clinical M. tuberculosis strains; type: cell-based, Mycobacterium tuberculosis

Row | SMILES | cross-resistance with DG167 [1] | whole-cell activity versus clinical strains [2]
1 | CCCCS(=O)(=O)Nc1ccc2[nH]c(C#N)c(C)c2c1 [Compound 9, N-(2-cyano-3-methyl-1H-indol-5-yl)butane-1-sulfonamide] | cross-resistant | maintained their in vitro potency
2 | CCCCCS(=O)(=O)Nc1ccc2[nH]c(C#N)c(C)c2c1 [Compound 10, N-(2-cyano-3-methyl-1H-indol-5-yl)pentane-1-sulfonamide] | cross-resistant | maintained their in vitro potency
3 | Cc1n[nH]c2ccc(NS(=O)(=O)CCCCF)cc12 [JSF-3285, 4-fluoro-N-(3-methyl-1H-indazol-5-yl)butane-1-sulfonamide] | cross-resistant with DG167 | comparable with its efficacy versus the H37Rv strain
